Laboratory results as given in ChEMBL document CHEMBL1255205, “Validated predictive QSAR modeling of N-aryl-oxazolidinone-5-carboxamides for anti-HIV protease activity” (Bioorg Med Chem Lett, 2010).

These molecules were tested against Protease (Human immunodeficiency virus 1, UniProt Q9YQ12) (assay: Inhibition of HIV1 protease).
Chain of Protease (Q9YQ12 whole entry): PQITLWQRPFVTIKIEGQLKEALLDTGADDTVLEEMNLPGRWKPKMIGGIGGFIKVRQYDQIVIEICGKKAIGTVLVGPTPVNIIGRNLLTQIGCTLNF

| Structure (SMILES) | Ki |
| --- | --- |
| O=C(Cc1ccc2c(c1)OCO2)N[C@H](CC[C@H](Cc1ccccc1)NC(=O)[C@@H]1CN(c2ccccc2)C(=O)O1)Cc1ccccc1 | 657 nM |
| COC(=O)NC(C(=O)N[C@@H](Cc1ccccc1)C(O)CN(CC(C)C)NC(=O)C1CN(c2ccccc2)C(=O)O1)C(C)(C)C (stereo partly drawn) | 10.6 nM |
| Cc1cccc(C)c1OCC(=O)N[C@@H](Cc1ccccc1)CC(O)[C@H](Cc1ccccc1)NC(=O)[C@@H]1CN(c2ccccc2)C(=O)O1 (stereo partly drawn) | 8.05 nM |
| CC(=O)NC(C(=O)N[C@@H](Cc1ccccc1)CC(O)[C@H](Cc1ccccc1)NC(=O)[C@@H]1CN(c2cccc(C(F)(F)F)c2)C(=O)O1)C(C)C (stereo partly drawn) | 2.62 nM |
| COC(=O)NC(C(=O)N[C@@H](Cc1ccccc1)CC(O)[C@H](Cc1ccccc1)NC(=O)[C@@H]1CN(c2ccccc2)C(=O)O1)C(C)(C)C (stereo partly drawn) | 3.51 nM |
| CC(=O)c1ccc(N2C[C@@H](C(=O)N[C@@H](Cc3ccccc3)C(O)C[C@H](Cc3ccccc3)NC(=O)COc3c(C)cccc3C)OC2=O)cc1 (stereo partly drawn) | 39.9 nM |
| CC(=O)c1cccc(N2CC(C(=O)NN(Cc3ccc(-c4ccccn4)cc3)CC(O)[C@H](Cc3ccccc3)NC(=O)[C@@H]3CN(c4cccc(C(C)=O)c4)C(=O)O3)OC2=O)c1 (stereo partly drawn) | 1090 nM |
| Cc1cccc(C)c1OCC(=O)N[C@@H](Cc1ccccc1)C(O)C[C@H](Cc1ccccc1)NC(=O)[C@@H]1CN(c2ccccc2)C(=O)O1 (stereo partly drawn) | 4730 nM |
| CC(=O)NC(C(=O)N[C@@H](Cc1ccccc1)CC(O)[C@H](Cc1ccccc1)NC(=O)[C@@H]1CN(c2ccc(F)c(F)c2)C(=O)O1)C(C)C (stereo partly drawn) | 2.13 nM |
| O=C(N[C@@H](Cc1ccccc1)C(O)C[C@H](Cc1ccccc1)NC(=O)[C@@H]1CN(c2cccc(C(F)(F)F)c2)C(=O)O1)OCc1ccccn1 (stereo partly drawn) | 41.1 nM |
| Cc1cccc(C)c1OCC(=O)N[C@@H](Cc1ccccc1)C(O)C[C@H](Cc1ccccc1)NC(=O)[C@@H]1CN(c2cccc(C(F)(F)F)c2)C(=O)O1 (stereo partly drawn) | 21.6 nM |
| COC(=O)NC(C(=O)NN(CC(C)C)CC(O)[C@H](Cc1ccccc1)NC(=O)[C@@H]1CN(c2ccccc2)C(=O)O1)C(C)(C)C (stereo partly drawn) | 7 nM |
| CC(=O)c1cccc(N2C[C@@H](C(=O)N[C@@H](Cc3ccccc3)C(O)C[C@H](Cc3ccccc3)NC(=O)COc3c(C)cccc3C)OC2=O)c1 (stereo partly drawn) | 35.1 nM |
